Measurements from patent US8946421B2, “Lipidated imidazoquinoline derivatives” (GlaxoSmithKline Biologicals S.A., priority 2008, dated 2015).

How the values were obtained:
Assay type in all cases: in vivo
[1] = test system: C57BL/6 (H2Kb), female mice; assay: antigen-specific CD4 T cell response, intracellular cytokine staining of PBLs after vaccination; settings: liposome-based MPL and QS-21-containing formulation; vs control formulation; dose dependent; FIG. 4
Description: (§1) Formulation of the compounds for a comparison study requires taking into account the different molecular weights of the core and lipidated molecules, (e.g. 45 and 4.5 μg of the lipidated compound L3 corresponds to approximately to 15 and 1.5 μg of the corresponding core compound, “L3 core”), allowing for the side by side comparison of the corresponding groups in the study. Higher doses of L3 (200 μg) and of L3 core (150 μg) are also tested. In one such study formulations summarized and described below (table 1) are used to vaccinate 6-8 week old C57BL/6 (H2Kb), female mice (10/group). The mice receive two injections 14 days apart and are bled during weeks 1, 3 and 4 (for precise bleed days see FIG. 1). The mice are vaccinated intramuscularly. A heterologous prime/boost using recombinant adenovirus coding for the SIV-p27 protein and adjuvanted p27 are used as control groups, the adenovirus is injected at a dose of 5×10^8 VP. The study design is represented in FIG. 1. […]
(§2) The induction of antigen-specific CD8 and CD4 responses is assessed by measuring intracellular cytokines 7 days after the second injection. […] The secretion of cytokines is blocked by Brefeldin A and the presence of 3 cytokines (IFNγ, TNFα and IL2) is evaluated by flow cytometry after intracellular staining with appropriate antibodies.

[2] = test system: C57BL/6 (H2Kb), female mice; assay: serum cytokine response after first injection; settings: sera of mice 3 and 24 hrs after the first injection
Description: Formulation of the compounds for a comparison study requires taking into account the different molecular weights of the core and lipidated molecules, (e.g. 45 and 4.5 μg of the lipidated compound L3 corresponds to approximately to 15 and 1.5 μg of the corresponding core compound, “L3 core”), allowing for the side by side comparison of the corresponding groups in the study. Higher doses of L3 (200 μg) and of L3 core (150 μg) are also tested. In one such study formulations summarized and described below (table 1) are used to vaccinate 6-8 week old C57BL/6 (H2Kb), female mice (10/group). The mice receive two injections 14 days apart and are bled during weeks 1, 3 and 4 (for precise bleed days see FIG. 1). The mice are vaccinated intramuscularly. A heterologous prime/boost using recombinant adenovirus coding for the SIV-p27 protein and adjuvanted p27 are used as control groups, the adenovirus is injected at a dose of 5×10^8 VP. The study design is represented in FIG. 1.
Additional investigation illustrates the ability of lipidated TLR7/8 compounds to induce innate chemokines and pro-inflammatory cytokines among which type I IFN is known to be required for the programming of naïve CD8-T-cell (survival, differentiate and memory development). These cytokines are measured in the sera of mice 3 and 24 hrs after the first injection (FIGS. 5 and 6).

[3] = test system: C57BL/6 (H2Kb), female mice; assay: p27-specific CD8 response, intracellular cytokine staining of PBLs after vaccination; settings: 7 days after the second immunization; co-administered with MPL and QS-21 formulations; vs control formulation without TLR7/8L; intramuscular; FIG. 2
Description: as §1, §2

SMILES: CCCCCCCCCCCCCCCC(=O)OC[C@H](COP(=O)(O)OCCn1c(COCC)nc2c(N)nc3ccccc3c21)OC(=O)CCCCCCCCCCCCCCC [Compound L3, 4-Amino-1-[2-(1,2-dipalmitoyl-sn-glycero-3-phospho)ethyl]-2-ethoxymethyl-1H-imidazo[4,5-c]quinoline]
- p27-specific CD4 frequency [1]: increased
- IL-6 in serum ([2]; added to QS21 and MPL): enhanced
- TNFα in serum ([2]; added to QS21 and MPL): enhanced
- IL-12p70 production in serum ([2]; with QS21 and MPL): Low IL-12p70 production, close to background level
- Level of INFγ in serum ([2]; with QS21 and MPL): increased at low dose
- IFNα in serum ([2]; with QS21 and MPL, FIGS. 5 and 6): in a dose-dependent manner and at higher level than for its core counterpart
- p27-specific CD8 frequency [3]: clearly increased
